Laboratory results taken from article PMC9900472 (ACS chemical biology, 2022).

Legend:
[1] = target: T1, C. elegans iPGM (Caenorhabditis elegans, UniProt G5EFZ1); test: luminescent coupled-enzyme ATP-quantifying iPGM assay, C. elegans iPGM; assay type: biochemical
T1 sequence (G5EFZ1 1-539): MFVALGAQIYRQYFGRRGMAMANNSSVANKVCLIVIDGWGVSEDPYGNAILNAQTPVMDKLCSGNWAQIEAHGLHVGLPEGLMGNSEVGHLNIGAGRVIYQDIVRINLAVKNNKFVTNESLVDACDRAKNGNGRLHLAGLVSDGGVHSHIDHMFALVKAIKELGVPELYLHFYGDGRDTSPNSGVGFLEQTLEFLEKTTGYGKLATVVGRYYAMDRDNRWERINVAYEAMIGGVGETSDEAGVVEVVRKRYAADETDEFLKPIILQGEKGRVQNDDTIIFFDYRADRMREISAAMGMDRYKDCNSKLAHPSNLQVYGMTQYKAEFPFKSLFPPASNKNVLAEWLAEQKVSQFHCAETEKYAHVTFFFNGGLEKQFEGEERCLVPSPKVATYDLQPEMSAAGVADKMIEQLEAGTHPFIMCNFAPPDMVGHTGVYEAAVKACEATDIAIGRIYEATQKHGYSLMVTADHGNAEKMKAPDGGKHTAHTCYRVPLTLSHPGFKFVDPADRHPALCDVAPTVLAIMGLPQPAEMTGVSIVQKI

[2] = target: B. malayi iPGM (Brugia malayi, UniProt Q4VWF8); test: luminescent coupled-enzyme ATP-quantifying iPGM assay, B. malayi iPGM; assay type: biochemical
B. malayi iPGM, sequence (Q4VWF8 whole entry): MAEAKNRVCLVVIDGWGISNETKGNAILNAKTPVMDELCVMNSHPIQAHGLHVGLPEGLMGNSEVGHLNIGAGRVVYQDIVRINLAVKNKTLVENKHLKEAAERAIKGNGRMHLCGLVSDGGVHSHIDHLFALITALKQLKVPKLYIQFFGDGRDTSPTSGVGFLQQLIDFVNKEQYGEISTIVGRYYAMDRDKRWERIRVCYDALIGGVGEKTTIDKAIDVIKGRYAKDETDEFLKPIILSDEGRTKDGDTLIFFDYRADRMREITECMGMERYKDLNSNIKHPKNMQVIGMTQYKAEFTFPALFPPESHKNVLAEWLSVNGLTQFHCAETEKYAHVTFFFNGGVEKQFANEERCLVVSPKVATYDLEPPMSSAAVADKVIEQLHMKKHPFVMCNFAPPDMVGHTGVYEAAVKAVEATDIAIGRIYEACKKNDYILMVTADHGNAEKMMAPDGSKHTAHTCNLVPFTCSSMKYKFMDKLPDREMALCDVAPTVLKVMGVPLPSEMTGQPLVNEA

[3] = target: T2, H. pylori iPGM (Helicobacter pylori, UniProt B5Z7X6); test: biochemical
T2 sequence (B5Z7X6 1-491): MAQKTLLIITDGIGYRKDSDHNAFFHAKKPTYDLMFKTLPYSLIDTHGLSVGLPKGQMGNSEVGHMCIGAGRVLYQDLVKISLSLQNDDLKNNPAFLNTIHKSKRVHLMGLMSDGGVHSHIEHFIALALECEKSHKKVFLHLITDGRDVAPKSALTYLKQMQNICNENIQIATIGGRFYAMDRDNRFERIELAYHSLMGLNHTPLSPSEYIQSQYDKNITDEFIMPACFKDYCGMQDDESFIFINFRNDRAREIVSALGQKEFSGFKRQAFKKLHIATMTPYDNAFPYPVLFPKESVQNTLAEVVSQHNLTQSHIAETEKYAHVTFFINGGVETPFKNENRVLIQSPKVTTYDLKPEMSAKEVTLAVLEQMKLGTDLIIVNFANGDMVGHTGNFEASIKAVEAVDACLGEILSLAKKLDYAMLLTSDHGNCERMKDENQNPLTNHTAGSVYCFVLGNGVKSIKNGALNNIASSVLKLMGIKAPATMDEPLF

[4] = target: T3, W. bancrofti iPGM (Wuchereria bancrofti, UniProt B1P0R4); test: biochemical
T3 sequence (B1P0R4 1-515): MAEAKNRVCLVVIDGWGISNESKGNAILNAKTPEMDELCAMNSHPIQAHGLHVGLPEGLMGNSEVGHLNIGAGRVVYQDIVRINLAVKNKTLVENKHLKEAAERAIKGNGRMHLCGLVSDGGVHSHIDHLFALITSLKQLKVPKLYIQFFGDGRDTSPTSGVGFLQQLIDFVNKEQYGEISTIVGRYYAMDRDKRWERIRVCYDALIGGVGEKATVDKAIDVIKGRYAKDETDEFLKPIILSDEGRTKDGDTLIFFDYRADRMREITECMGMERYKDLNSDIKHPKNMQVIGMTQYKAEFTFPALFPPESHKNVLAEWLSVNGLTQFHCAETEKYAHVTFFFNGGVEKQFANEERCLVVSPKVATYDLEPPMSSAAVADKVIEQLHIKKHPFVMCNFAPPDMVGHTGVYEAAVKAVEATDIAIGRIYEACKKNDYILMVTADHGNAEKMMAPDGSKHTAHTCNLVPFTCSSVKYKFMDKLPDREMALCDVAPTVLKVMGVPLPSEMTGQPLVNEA

[5] = target: E. coli iPGM (Escherichia coli, UniProt P37689); test: luminescent coupled-enzyme ATP-quantifying iPGM assay, E. coli iPGM; assay type: biochemical
E. coli iPGM, sequence (P37689 whole entry): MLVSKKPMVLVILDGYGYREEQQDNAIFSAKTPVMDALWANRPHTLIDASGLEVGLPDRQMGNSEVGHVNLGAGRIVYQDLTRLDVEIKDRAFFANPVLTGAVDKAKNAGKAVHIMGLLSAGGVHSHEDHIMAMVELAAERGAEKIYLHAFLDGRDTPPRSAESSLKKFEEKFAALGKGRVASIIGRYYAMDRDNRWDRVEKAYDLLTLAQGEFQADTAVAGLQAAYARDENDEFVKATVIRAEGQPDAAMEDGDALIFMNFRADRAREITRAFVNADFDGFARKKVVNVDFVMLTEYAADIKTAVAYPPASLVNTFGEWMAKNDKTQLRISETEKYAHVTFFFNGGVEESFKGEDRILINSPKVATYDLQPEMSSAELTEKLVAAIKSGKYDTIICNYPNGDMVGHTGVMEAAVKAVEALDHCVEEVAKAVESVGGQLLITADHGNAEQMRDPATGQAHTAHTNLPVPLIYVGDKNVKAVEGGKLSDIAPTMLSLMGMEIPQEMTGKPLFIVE

Structure (SMILES): CC(C)C[C@H](NC(=O)[C@H](Cc1ccc(O)cc1)NC(=O)[C@@H]1CSCC(=O)N[C@H](Cc2ccc(O)cc2)C(=O)N[C@@H](CC(=O)O)C(=O)N[C@@H](Cc2ccc(O)cc2)C(=O)N2CCC[C@H]2C(=O)NCC(=O)N[C@@H](CC(=O)O)C(=O)N[C@@H](Cc2ccc(O)cc2)C(=O)N1)C(=O)N[C@@H](Cc1ccc(O)cc1)C(=O)NCC(=O)N[C@H](C(=O)N[C@@H](CS)C(N)=O)[C@@H](C)O [Ce-2]
- AC50 [1]: 2.45 nM
- AC50 [2]: 2.69 nM
- AC50 [3]: 3630 nM
- AC50 [4]: 2.34 nM
- AC50 [5]: 316 nM
